Values of other authors in patent publication US20080176893A1, “Formulation of a Thienopyridine Platelet Aggregation Inhibitor” (ELI LILLY AND COMPANY, priority 2005, published 2008).

## CC(=O)Oc1cc2c(s1)CCN(C(C(=O)C1CC1)c1ccccc1F)C2.Cl (stereo not drawn) [Prasugrel, 2-Acetoxy-5-(α-cycloprpylcarbonyl-2-fluorobenzyl)-4,5,6,7-tetrahydrothieno[3,2-c]pyridine]
  degradation on prolonged exposure to air and moisture: some degradation
